Article PMC8371461 (Frontiers in Pharmacology, 2021)

Legend:
ERK5 = biological target: T1, ERK5 (Homo sapiens, UniProt Q13164); experiment: kinome scan; type: binding; settings: 10 µM
T1 construct: purchased DiscoverX (KINOMEscan)

FLT3(D835Y) = biological target: T2, FLT3(D835Y) (Homo sapiens, UniProt P36888, D835Y); experiment: kinome scan; type: binding; settings: 10 µM
T2 construct: purchased DiscoverX (KINOMEscan)

CDKL5 = biological target: T3, CDKL5 (Homo sapiens, UniProt O76039); experiment: kinome scan; type: binding; settings: 10 µM
T3 construct: purchased DiscoverX (KINOMEscan)

KIT(D816V) = biological target: T4, KIT(D816V) (Homo sapiens, UniProt P10721, D816V); experiment: kinome scan; type: binding; settings: 10 µM
T4 construct: purchased DiscoverX (KINOMEscan)

[1] = system: Pregnane X receptor (PXR) signaling pathway; set-up: method as in CHEMBL3215112; settings: reported activity, data mining; ref CHEMBL3215112; cited from earlier work
MAP3K4 = biological target: T5, MAP3K4 (Homo sapiens, UniProt Q9Y6R4); experiment: kinome scan; type: binding; settings: 10 µM
T5 construct: purchased DiscoverX (KINOMEscan)

[2] = biological target: T6, RSK1(Kin.Dom.1-N-terminal) (Homo sapiens, UniProt Q15418); experiment: kinome scan; type: binding; settings: 10 µM
T6 construct: RSK1(Kin.Dom.1-N-terminal); purchased DiscoverX (KINOMEscan)

AURKA = biological target: T7, AURKA (Homo sapiens, UniProt O14965); experiment: kinome scan; type: binding; settings: 10 µM
T7 construct: purchased DiscoverX (KINOMEscan)

GRK1 = biological target: T8, GRK1 (Homo sapiens, UniProt Q15835); experiment: kinome scan; type: binding; settings: 10 µM
T8 construct: purchased DiscoverX (KINOMEscan)

PIK3CD = biological target: T9, PIK3CD (Homo sapiens, UniProt O00329); experiment: kinome scan; type: binding; settings: 10 µM
T9 construct: purchased DiscoverX (KINOMEscan)

BTK = biological target: T10, BTK (Homo sapiens, UniProt Q06187); experiment: kinome scan; type: binding; settings: 10 µM
T10 construct: purchased DiscoverX (KINOMEscan)

CDK5 = biological target: T11, CDK5 (Homo sapiens, UniProt Q00535); experiment: kinome scan; type: binding; settings: 10 µM
T11 construct: purchased DiscoverX (KINOMEscan)

PLK1 = biological target: T12, PLK1 (Homo sapiens, UniProt P53350); experiment: kinome scan; type: binding; settings: 10 µM
T12 construct: purchased DiscoverX (KINOMEscan)

TESK1 = biological target: T13, TESK1 (Homo sapiens, UniProt Q15569); experiment: kinome scan; type: binding; settings: 10 µM
T13 construct: purchased DiscoverX (KINOMEscan)

PCTK2 = biological target: T14, PCTK2 (Homo sapiens, UniProt Q00537); experiment: kinome scan; type: binding; settings: 10 µM
T14 construct: purchased DiscoverX (KINOMEscan)

CDK8 = biological target: T15, CDK8 (Homo sapiens, UniProt P49336); experiment: kinome scan; type: binding; settings: 10 µM
T15 construct: purchased DiscoverX (KINOMEscan)

INSRR = biological target: T16, INSRR (Homo sapiens, UniProt P14616); experiment: kinome scan; type: binding; settings: 10 µM
T16 construct: purchased DiscoverX (KINOMEscan)

PRKCD = biological target: T17, PRKCD (Homo sapiens, UniProt Q05655); experiment: kinome scan; type: binding; settings: 10 µM
T17 construct: purchased DiscoverX (KINOMEscan)

ULK3 = biological target: T18, ULK3 (Homo sapiens, UniProt Q6PHR2); experiment: kinome scan; type: binding; settings: 10 µM
T18 construct: purchased DiscoverX (KINOMEscan)

FES = biological target: T19, FES (Homo sapiens, UniProt P07332); experiment: kinome scan; type: binding; settings: 10 µM
T19 construct: purchased DiscoverX (KINOMEscan)

SIK2 = biological target: T20, SIK2 (Homo sapiens, UniProt Q9H0K1); experiment: kinome scan; type: binding; settings: 10 µM
T20 construct: purchased DiscoverX (KINOMEscan)

MKNK1 = biological target: T21, MKNK1 (Homo sapiens, UniProt Q9BUB5); experiment: kinome scan; type: binding; settings: 10 µM
T21 construct: purchased DiscoverX (KINOMEscan)

CDC2L2 = biological target: T22, CDC2L2 (Homo sapiens, UniProt Q9UQ88); experiment: kinome scan; type: binding; settings: 10 µM
T22 construct: purchased DiscoverX (KINOMEscan)

ARK5 = biological target: T23, ARK5 (Homo sapiens, UniProt O60285); experiment: kinome scan; type: binding; settings: 10 µM
T23 construct: purchased DiscoverX (KINOMEscan)

KIT(V559D) = biological target: T24, KIT(V559D) (Homo sapiens, UniProt P10721, V559D); experiment: kinome scan; type: binding
T24 construct: purchased DiscoverX (KINOMEscan)

MAP4K5 = biological target: T25, MAP4K5 (Homo sapiens, UniProt Q9Y4K4); experiment: kinome scan; type: binding; settings: 10 µM
T25 construct: purchased DiscoverX (KINOMEscan)

[3] = system: Euchromatic histone-lysine N-methyltransferase 2; set-up: method as in PubChem Bioassay ID 504,332; settings: reported activity, data mining; ref PubChem Bioassay ID 504,332; cited from earlier work
[4] = biological target: T26, ABL1(F317L)-nonphosphorylated (Homo sapiens, UniProt P00519, F317L); experiment: kinome scan; type: binding; settings: 10 µM
T26 construct: purchased DiscoverX (KINOMEscan)

CDK11 = biological target: T27, CDK11 (Homo sapiens, UniProt Q9BWU1); experiment: kinome scan; type: binding; settings: 10 µM
T27 construct: purchased DiscoverX (KINOMEscan)

PYK2 = biological target: T28, PYK2 (Homo sapiens, UniProt Q14289); experiment: kinome scan; type: binding; settings: 10 µM
T28 construct: purchased DiscoverX (KINOMEscan)

PRKG1 = biological target: T29, PRKG1 (Homo sapiens, UniProt Q13976); experiment: kinome scan; type: binding; settings: 10 µM
T29 construct: purchased DiscoverX (KINOMEscan)

ERBB2 = biological target: T30, ERBB2 (Homo sapiens, UniProt P04626); experiment: kinome scan; type: binding; settings: 10 µM
T30 construct: purchased DiscoverX (KINOMEscan)

MAST1 = biological target: T31, MAST1 (Homo sapiens, UniProt Q9Y2H9); experiment: kinome scan; type: binding; settings: 10 µM
T31 construct: purchased DiscoverX (KINOMEscan)

DDR1 = biological target: T32, DDR1 (Homo sapiens, UniProt Q08345); experiment: kinome scan; type: binding; settings: 10 µM
T32 construct: purchased DiscoverX (KINOMEscan)

SRPK3 = biological target: T33, SRPK3 (Homo sapiens, UniProt Q9UPE1); experiment: kinome scan; type: binding; settings: 10 µM
T33 construct: purchased DiscoverX (KINOMEscan)

BRAF = biological target: T34, BRAF (Homo sapiens, UniProt P15056); experiment: kinome scan; type: binding; settings: 10 µM
T34 construct: purchased DiscoverX (KINOMEscan)

EPHB2 = biological target: T35, EPHB2 (Homo sapiens, UniProt P29323); experiment: kinome scan; type: binding; settings: 10 µM
T35 construct: purchased DiscoverX (KINOMEscan)

PIP5K1C = biological target: T36, PIP5K1C (Homo sapiens, UniProt O60331); experiment: kinome scan; type: binding; settings: 10 µM
T36 construct: purchased DiscoverX (KINOMEscan)

PRKCE = biological target: T37, PRKCE (Homo sapiens, UniProt Q02156); experiment: kinome scan; type: binding; settings: 10 µM
T37 construct: purchased DiscoverX (KINOMEscan)

NEK1 = biological target: T38, NEK1 (Homo sapiens, UniProt Q96PY6); experiment: kinome scan; type: binding; settings: 10 µM
T38 construct: purchased DiscoverX (KINOMEscan)

CSNK1A1L = biological target: T39, CSNK1A1L (Homo sapiens, UniProt Q8N752); experiment: kinome scan; type: binding; settings: 10 µM
T39 construct: purchased DiscoverX (KINOMEscan)

PIK3CA(C420R) = biological target: T40, PIK3CA(C420R) (Homo sapiens, UniProt P42336, C420R); experiment: kinome scan; type: binding; settings: 10 µM
T40 construct: purchased DiscoverX (KINOMEscan)

T24 sequence (P10721 26-976 V559D): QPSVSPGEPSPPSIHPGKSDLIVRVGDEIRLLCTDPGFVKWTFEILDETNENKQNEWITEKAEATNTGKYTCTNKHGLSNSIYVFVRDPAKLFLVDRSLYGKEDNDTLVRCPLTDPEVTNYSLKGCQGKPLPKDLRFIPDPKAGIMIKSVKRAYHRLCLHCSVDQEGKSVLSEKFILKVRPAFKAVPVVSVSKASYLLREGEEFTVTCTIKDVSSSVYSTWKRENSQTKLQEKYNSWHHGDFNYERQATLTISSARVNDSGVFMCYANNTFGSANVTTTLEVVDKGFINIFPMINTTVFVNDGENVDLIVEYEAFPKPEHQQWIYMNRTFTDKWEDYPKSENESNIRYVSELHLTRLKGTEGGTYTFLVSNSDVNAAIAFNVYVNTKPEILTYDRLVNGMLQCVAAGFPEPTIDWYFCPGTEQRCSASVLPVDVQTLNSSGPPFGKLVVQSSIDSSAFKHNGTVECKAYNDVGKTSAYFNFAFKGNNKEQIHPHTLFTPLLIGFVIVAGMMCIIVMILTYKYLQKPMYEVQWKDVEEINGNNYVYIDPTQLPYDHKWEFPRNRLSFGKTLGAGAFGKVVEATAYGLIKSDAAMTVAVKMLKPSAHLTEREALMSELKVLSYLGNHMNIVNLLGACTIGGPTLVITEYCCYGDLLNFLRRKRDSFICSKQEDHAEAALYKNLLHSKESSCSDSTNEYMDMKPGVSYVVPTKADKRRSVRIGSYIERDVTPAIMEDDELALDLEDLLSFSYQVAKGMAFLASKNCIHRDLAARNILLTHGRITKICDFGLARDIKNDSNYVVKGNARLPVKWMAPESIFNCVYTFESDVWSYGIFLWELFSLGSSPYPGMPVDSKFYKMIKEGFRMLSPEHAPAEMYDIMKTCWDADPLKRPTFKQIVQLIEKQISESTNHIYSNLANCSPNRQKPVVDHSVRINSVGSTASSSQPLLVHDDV
T8 sequence (Q15835 whole entry): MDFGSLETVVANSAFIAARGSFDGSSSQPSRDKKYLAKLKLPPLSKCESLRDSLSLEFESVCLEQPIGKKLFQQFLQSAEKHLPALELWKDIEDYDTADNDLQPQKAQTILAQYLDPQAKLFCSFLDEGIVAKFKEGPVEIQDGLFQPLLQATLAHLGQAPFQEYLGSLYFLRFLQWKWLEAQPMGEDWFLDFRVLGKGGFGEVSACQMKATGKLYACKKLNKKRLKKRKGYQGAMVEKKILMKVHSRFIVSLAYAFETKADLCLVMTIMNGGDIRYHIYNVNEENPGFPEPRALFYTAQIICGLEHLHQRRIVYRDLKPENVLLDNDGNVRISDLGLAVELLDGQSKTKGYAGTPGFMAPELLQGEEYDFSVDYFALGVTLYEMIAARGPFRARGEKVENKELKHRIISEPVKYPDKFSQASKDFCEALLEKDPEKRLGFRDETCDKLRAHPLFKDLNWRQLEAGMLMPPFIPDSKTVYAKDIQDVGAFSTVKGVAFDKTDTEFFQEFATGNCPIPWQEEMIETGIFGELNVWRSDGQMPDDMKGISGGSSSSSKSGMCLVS
T13 sequence (Q15569 whole entry): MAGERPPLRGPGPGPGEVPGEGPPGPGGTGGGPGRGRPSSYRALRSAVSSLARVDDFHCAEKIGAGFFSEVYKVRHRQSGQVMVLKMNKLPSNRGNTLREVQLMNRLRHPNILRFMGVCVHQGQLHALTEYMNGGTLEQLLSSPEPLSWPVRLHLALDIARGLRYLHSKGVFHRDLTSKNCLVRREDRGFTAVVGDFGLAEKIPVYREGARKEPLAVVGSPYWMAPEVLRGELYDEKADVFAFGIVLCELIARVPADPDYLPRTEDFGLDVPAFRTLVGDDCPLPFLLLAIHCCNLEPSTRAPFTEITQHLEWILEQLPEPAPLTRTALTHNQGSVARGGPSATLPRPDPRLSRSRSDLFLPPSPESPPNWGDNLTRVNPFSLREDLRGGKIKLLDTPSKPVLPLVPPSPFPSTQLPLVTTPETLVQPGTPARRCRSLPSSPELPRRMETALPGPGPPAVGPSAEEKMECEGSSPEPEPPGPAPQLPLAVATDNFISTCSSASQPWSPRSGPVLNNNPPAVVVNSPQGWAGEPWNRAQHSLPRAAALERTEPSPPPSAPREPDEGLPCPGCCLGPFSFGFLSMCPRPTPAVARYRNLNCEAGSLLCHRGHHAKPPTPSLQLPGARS
T28 sequence (Q14289 whole entry): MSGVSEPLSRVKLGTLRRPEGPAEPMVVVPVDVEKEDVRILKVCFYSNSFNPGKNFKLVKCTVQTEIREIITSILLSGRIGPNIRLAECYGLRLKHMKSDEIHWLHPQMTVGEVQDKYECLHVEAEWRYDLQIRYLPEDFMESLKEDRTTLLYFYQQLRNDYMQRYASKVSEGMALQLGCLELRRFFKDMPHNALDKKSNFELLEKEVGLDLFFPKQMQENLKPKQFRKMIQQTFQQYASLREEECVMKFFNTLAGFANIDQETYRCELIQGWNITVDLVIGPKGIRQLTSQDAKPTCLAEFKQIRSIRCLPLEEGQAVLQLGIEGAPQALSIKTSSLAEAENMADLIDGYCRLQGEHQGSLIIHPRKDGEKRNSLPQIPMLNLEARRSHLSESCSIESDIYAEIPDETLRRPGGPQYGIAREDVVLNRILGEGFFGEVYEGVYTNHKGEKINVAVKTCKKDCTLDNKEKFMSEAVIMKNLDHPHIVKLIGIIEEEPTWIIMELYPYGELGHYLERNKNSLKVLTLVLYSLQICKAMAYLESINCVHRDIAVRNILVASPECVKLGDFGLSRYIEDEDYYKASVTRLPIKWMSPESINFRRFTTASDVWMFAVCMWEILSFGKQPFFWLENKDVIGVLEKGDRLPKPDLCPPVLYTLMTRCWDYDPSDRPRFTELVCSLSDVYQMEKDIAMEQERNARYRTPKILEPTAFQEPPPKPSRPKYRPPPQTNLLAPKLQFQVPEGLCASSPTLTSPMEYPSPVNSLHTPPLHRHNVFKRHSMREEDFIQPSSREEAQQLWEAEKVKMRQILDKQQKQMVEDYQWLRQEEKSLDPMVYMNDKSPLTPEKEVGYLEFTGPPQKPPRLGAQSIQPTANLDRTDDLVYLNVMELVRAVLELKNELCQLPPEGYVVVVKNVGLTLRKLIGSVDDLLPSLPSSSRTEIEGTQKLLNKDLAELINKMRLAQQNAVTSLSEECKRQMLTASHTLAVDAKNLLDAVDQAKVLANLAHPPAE
T33 sequence (Q9UPE1 whole entry): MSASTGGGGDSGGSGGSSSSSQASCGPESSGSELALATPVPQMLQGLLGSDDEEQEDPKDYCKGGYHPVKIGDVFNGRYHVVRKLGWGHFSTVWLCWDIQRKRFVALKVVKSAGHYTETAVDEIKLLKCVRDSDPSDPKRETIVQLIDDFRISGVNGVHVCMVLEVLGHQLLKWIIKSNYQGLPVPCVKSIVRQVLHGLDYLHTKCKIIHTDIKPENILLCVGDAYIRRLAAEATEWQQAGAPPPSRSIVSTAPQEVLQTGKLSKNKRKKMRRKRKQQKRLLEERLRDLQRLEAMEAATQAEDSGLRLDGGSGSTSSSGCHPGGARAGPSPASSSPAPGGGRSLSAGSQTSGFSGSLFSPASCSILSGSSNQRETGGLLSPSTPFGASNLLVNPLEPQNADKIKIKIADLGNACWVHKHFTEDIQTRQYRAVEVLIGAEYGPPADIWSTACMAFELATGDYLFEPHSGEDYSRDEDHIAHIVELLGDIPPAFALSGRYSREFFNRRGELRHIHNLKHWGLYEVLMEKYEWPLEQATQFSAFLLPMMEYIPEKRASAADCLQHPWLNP
T32 sequence (Q08345 19-913): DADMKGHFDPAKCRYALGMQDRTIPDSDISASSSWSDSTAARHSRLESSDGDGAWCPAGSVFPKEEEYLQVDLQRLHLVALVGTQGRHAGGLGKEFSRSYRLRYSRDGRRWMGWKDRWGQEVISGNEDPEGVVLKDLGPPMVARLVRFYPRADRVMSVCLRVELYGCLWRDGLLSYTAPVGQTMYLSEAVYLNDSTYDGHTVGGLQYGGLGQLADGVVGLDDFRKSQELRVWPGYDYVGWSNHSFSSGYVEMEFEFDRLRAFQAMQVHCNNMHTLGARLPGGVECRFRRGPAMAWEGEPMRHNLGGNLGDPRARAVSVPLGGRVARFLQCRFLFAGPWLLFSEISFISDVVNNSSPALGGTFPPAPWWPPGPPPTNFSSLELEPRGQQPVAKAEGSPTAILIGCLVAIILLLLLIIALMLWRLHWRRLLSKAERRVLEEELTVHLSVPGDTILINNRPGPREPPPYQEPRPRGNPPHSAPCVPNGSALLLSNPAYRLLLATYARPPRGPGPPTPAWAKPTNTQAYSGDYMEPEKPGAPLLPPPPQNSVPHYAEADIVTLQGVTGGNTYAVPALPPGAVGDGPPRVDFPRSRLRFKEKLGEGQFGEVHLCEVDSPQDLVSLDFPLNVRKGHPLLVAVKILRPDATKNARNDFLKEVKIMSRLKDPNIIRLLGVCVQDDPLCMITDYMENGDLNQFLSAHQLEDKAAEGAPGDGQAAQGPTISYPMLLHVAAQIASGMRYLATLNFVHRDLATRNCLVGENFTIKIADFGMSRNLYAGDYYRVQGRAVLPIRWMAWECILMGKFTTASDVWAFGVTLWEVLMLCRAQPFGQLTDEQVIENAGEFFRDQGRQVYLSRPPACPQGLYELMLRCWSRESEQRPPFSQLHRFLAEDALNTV
T6 sequence (Q15418 62-391 limits assumed): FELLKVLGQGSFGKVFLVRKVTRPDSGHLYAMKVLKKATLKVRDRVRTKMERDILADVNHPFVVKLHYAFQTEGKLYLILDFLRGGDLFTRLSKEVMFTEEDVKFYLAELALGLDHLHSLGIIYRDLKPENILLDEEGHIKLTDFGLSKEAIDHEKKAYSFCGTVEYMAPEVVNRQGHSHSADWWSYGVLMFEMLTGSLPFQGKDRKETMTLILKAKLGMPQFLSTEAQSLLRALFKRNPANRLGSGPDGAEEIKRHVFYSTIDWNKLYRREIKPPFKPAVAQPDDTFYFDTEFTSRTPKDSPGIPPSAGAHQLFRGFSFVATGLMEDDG
T4 sequence (P10721 26-976 D816V): as the sequence (P10721 26-976 V559D) above, with D534V, D791V counted along it

In the case of `Nc1ccc(N=Nc2ccccc2)c(N)n1` [phenazopyridine, 2,6-diamino-3-(phenylazo)pyridine], the kinase inhibition (ERK5) is reported as 95, the “percent of control (remaining binding)” value (FLT3(D835Y)) is reported as 42 and the kinase inhibition (CDKL5) is reported as 100. The kinase inhibition (KIT(D816V)) was 100, the Concentration [1] was 7.9 µM and the kinase inhibition (MAP3K4) was 100. The kinase inhibition [2] was 80, the kinase inhibition (AURKA) was 100 and the “remaining binding (% of control)” value (GRK1) was 100. For the same compound, the kinase inhibition (PIK3CD) was 78, the kinase inhibition (BTK) was 100 and the kinase inhibition (CDK5) was 90. The “remaining binding (% of control)” value (PLK1) was 79, the kinase inhibition (TESK1) was 100 and the kinase inhibition (PCTK2) was 98. It also gave a kinase inhibition (CDK8) of 86, a kinase inhibition (INSRR) of 100 and a kinase inhibition (PRKCD) of 100. For the same compound, the kinase inhibition (ULK3) was 100, the kinase inhibition (FES) was 100 and the kinase inhibition (SIK2) was 92. It also gave a kinase inhibition (MKNK1) of 37, a kinase inhibition (CDC2L2) of 84 and a kinase inhibition (ARK5) of 89. The remaining activity (KIT(V559D); KIT(V559D), 10 µM) was 32, the remaining binding at 10 µM (KIT(V559D); c-KIT Val559Asp, best mutant, read-out: Kinome scan (% of control at 10 µM)) was 32% and the kinase inhibition (MAP4K5) was 100. For the same compound, the Concentration [3] was 10 µM, the kinase inhibition [4] was 67 and the kinase inhibition (CDK11) was 90. For the same compound, the kinase inhibition (PYK2) was 100, the kinase inhibition (PRKG1) was 92 and the kinase inhibition (ERBB2) was 64. The kinase inhibition (MAST1) was 85, the kinase inhibition (DDR1) was 96 and the kinase inhibition (SRPK3) was 94. For the same compound, the kinase inhibition (BRAF) was 96, the kinase inhibition (EPHB2) was 70 and the kinase inhibition (PIP5K1C) was 42. The kinase inhibition (PRKCE) was 100, the kinase inhibition (NEK1) was 100 and the kinase inhibition (CSNK1A1L) was 100. It also gave a kinase inhibition (PIK3CA(C420R)) of 100.
